Results: US20210122771A1, “NEW MOLECULAR TWEEZERS AGAINST NEUROLOGICAL DISORDERS AND VIRAL INFECTIONS” (The Regents of the University of California, priority 2018, published 2021)

Legend:
[1] = PK screening in mice, three routes, two time points; conditions: for Blood Concentration, 40 min / Brain Concentration, 40 min / Blood Concentration, 4 h / Brain Concentration, 4 h: analyte: administered compound for 13 and 14, compound 1 in all other cases
Protocol: Each compound was administered to the mice at 2 mg/kg intravenously (I.V.), 2 mg/kg subcutaneously (S.C.), or 10 mg/kg orally (P.O.).

Full 24-h PK profile = assay type: in vivo, mice; parameters: Brain AUC: unit not given here
Protocol: Based on the 2-time-point screen results, a full 24-h PK profile has been obtained for compounds 13 and 14. In these experiments, the blood and brain levels were measured at 7 time points—0.3, 0.6, 1, 2, 4, 8, and 24 h. Data for 1 are given for reference.

KAA = assay type: binding; conditions: fluorometric titration in aqueous buffer at neutral pH; read-out: Dissociation constant Kd, KAA
RGD = assay type: binding; conditions: fluorometric titration in aqueous buffer at neutral pH; read-out: Dissociation constant Kd, RGD
[2] = tested on: differentiated rat pheochromocytoma (PC-12) cells; test: Self-toxicity in differentiated PC-12 cells (MTT and/or LDH); conditions: MTT and/or LDH assays, highest concentration tested 100 μM
Protocol: (§1) The highest concentration tested was 100 μM. Non-toxic compounds then were tested for their ability to inhibit the toxicity of 10 μM Aβ42 in the same assay. The parent compound 1 was used as a control in both cases.

Aβ42-induced toxicity = test: Inhibition of Aβ42 toxicity in differentiated PC-12 cells (MTT/LDH); assay type: cell-based, rat; conditions: 10 μM Aβ42, differentiated PC-12 cells
Protocol: as §1

[3] = Incubation with mouse liver microsomes, LC-MS/MS; assay type: in vitro ADME; conditions: incubation 1 h, LC-MS/MS every 15 min
[4] = Incubation with mouse plasma, LC-MS/MS; conditions: incubation 1 h, LC-MS/MS every 15 min
[5] = Incubation with simulated gastric fluid, LC-MS/MS; conditions: incubation 1 h, LC-MS/MS every 15 min
[6] = I.V., 24-h profile, 7 time points
[7] = P.O., 24-h profile, 7 time points
[8] = S.C., 24-h profile, 7 time points

Compound: COc1c2c(c(OP(=O)([O-])O)c3c1C1CC3c3cc4c(cc31)C1CC4c3ccccc31)C1CC2c2cc3c(cc21)C1CC3c2ccccc21.[Na+] [Compound 14]
- Bioavailability, 40 min ([1]; mouse, in vivo, 2 mg/kg): 281.1%
- Bioavailability, 4 h ([1]; mouse, in vivo, 2 mg/kg): 291.2%
- Bioavailability, 40 min ([1]; mouse, in vivo, 10 mg/kg): 3.9%
- Bioavailability, 4 h ([1]; mouse, in vivo, 10 mg/kg): 20.3%
- BBB penetration when administered I.V. (compared to 1) ([1]; mouse, in vivo, iv): substantially increased
- BBB penetration, 40 min ([1]; mouse, in vivo, iv, 2 mg/kg): 10.0%
- BBB penetration, 4 h ([1]; mouse, in vivo, iv, 2 mg/kg): 65.9%
- BBB penetration, 40 mm ([1]; mouse, in vivo, po, 10 mg/kg): 6.1%
- BBB penetration, 4 h ([1]; mouse, in vivo, po, 10 mg/kg): 2.6%
- BBB penetration, 40 min ([1]; mouse, in vivo, sc, 2 mg/kg): 0.1%
- BBB penetration, 4 h ([1]; mouse, in vivo, sc, 2 mg/kg): 0.4%
- BBB penetration relative to compound 1 (Full 24-h PK profile; mouse, in vivo): improved
- Blood AUC (Full 24-h PK profile; mouse, in vivo, iv): 1880
- Blood T1/2 (Full 24-h PK profile; mouse, in vivo, iv): 1.7 h
- Brain AUC (Full 24-h PK profile; mouse, in vivo, iv): 73.2
- Brain T1/2 (Full 24-h PK profile; mouse, in vivo, iv): 0.8 h
- LogBB (Full 24-h PK profile; mouse, in vivo, iv): −1.41
- Blood AUC (Full 24-h PK profile; mouse, in vivo, po): 16.1
- Blood Bioavailability (Full 24-h PK profile; mouse, in vivo, po): 0.9%
- Blood T1/2 (Full 24-h PK profile; mouse, in vivo, po): 4.4 h
- Brain AUC (Full 24-h PK profile; mouse, in vivo, po): 13.7
- Brain T1/2 (Full 24-h PK profile; mouse, in vivo, po): 6.5 h
- LogBB (Full 24-h PK profile; mouse, in vivo, po): −0.07
- oral bioavailability relative to compound 1 (Full 24-h PK profile; mouse, in vivo, po): improved
- Blood AUC (Full 24-h PK profile; mouse, in vivo, sc): 1147
- Blood Bioavailability (Full 24-h PK profile; mouse, in vivo, sc): 61.0%
- Blood T1/2 (Full 24-h PK profile; mouse, in vivo, sc): 14.8 h
- Brain AUC (Full 24-h PK profile; mouse, in vivo, sc): 4.4
- LogBB (Full 24-h PK profile; mouse, in vivo, sc): 0

Compound: C#CCCOP(=O)(O)Oc1c2c(c(OP(=O)(O)O)c3c1C1CC3c3cc4c(cc31)C1CC4c3ccccc31)C1CC2c2cc3c(cc21)C1CC3c2ccccc21 [Compound 12]
- Kd (KAA): 20 µM
- Kd (RGD): 60 µM

Compound: O=P([O-])(O)Oc1c2c(c(O)c3c1C1CC3c3cc4c(cc31)C1CC4c3ccccc31)C1CC2c2cc3c(cc21)C1CC3c2ccccc21.[Na+] [Compound 13]
- Self-toxicity [2]: Non-toxic
- protective effect against Aβ42-induced toxicity compared to 1 (Aβ42-induced toxicity): higher protective effect
- IC50 (Aβ42-induced toxicity; LDH assay, read-out: Inhibition of Aβ42 toxicity, IC50 (LDH)): 16 µM
- Blood Concentration, 40 min ([1]; mice, 2 mg/kg I.V., 40 min): 55 ng/mL
- Brain Concentration, 40 min ([1]; mice, 2 mg/kg I.V., 40 min): 3.58 ng/g
- BBB penetration, 40 min ([1]; mice, 2 mg/kg I.V., 40 min, percent ratio between brain and blood concentration): 6.5%
- Blood Concentration, 4 h ([1]; mice, 2 mg/kg I.V., 4 h): 53 ng/mL
- Brain Concentration, 4 h ([1]; mice, 2 mg/kg I.V., 4 h): 1.28 ng/g
- BBB penetration, 4 h ([1]; mice, 2 mg/kg I.V., 4 h, percent ratio between brain and blood concentration): 2.4%
- Blood Concentration, 40 min ([1]; mice, 2 mg/kg S.C., 40 min): 98 ng/mL
- Brain Concentration, 40 min ([1]; mice, 2 mg/kg S.C., 40 min): 1.19 ng/g
- BBB penetration, 40 min ([1]; mice, 2 mg/kg S.C., 40 min, percent ratio between brain and blood concentration): 1.2%
- Bioavailability, 40 min ([1]; mice, 2 mg/kg S.C., 40 min, percent ratio of the I.V. blood concentration): 178.2%
- Blood Concentration, 4 h ([1]; mice, 2 mg/kg S.C., 4 h): 50 ng/mL
- Brain Concentration, 4 h ([1]; mice, 2 mg/kg S.C., 4 h): 1.69 ng/g
- BBB penetration, 4 h ([1]; mice, 2 mg/kg S.C., 4 h, percent ratio between brain and blood concentration): 3.4%
- Bioavailability, 4 h ([1]; mice, 2 mg/kg S.C., 4 h, percent ratio of the I.V. blood concentration): 94.3%
- Blood Concentration, 40 min ([1]; mice, 10 mg/kg P.O., 40 min): 0.0 ng/mL
- Brain Concentration, 40 min ([1]; mice, 10 mg/kg P.O., 40 min): 1.79 ng/g
- BBB penetration, 40 mm ([1]; mice, 10 mg/kg P.O., 40 min, percent ratio between brain and blood concentration): 0.0%
- Bioavailability, 40 min ([1]; mice, 10 mg/kg P.O., 40 min, percent ratio of the I.V. blood concentration): 0.0%
- Blood Concentration, 4 h ([1]; mice, 10 mg/kg P.O., 4 h): 0.3 ng/mL
- Brain Concentration, 4 h ([1]; mice, 10 mg/kg P.O., 4 h): 0.26 ng/g
- BBB penetration, 4 h ([1]; mice, 10 mg/kg P.O., 4 h, percent ratio between brain and blood concentration): 100%
- Bioavailability, 4 h ([1]; mice, 10 mg/kg P.O., 4 h, percent ratio of the I.V. blood concentration): 0.5%
- LogBB (Full 24-h PK profile; I.V., 24-h profile): −2.06
- Blood T1/2 (Full 24-h PK profile; [6]): 1.2 h
- Brain AUC (Full 24-h PK profile; [6]): 3.71
- Brain T1/2 (Full 24-h PK profile; [6]): 1.5 h
- Blood AUC (Full 24-h PK profile; I.V., 24-h profile, 7 time points, in ng·h/mL): 423
- Blood Bioavailability (Full 24-h PK profile; P.O., 24-h profile): 21.6%
- LogBB (Full 24-h PK profile; P.O., 24-h profile): −1.84
- Blood T1/2 (Full 24-h PK profile; [7]): 16 h
- Brain AUC (Full 24-h PK profile; [7]): 1.33
- Brain T1/2 (Full 24-h PK profile; [7]): 3.1 h
- Blood AUC (Full 24-h PK profile; P.O., 24-h profile, 7 time points, in ng·h/mL): 91.2
- Blood Bioavailability (Full 24-h PK profile; S.C., 24-h profile): 246.7%
- LogBB (Full 24-h PK profile; S.C., 24-h profile): 3.31
- Blood T1/2 (Full 24-h PK profile; [8]): 11.1 h
- Brain T1/2 (Full 24-h PK profile; [8]): 1.1 h
- Blood AUC (Full 24-h PK profile; S.C., 24-h profile, 7 time points, in ng·h/mL): 1043
- BBB penetration relative to compound 1 (Full 24-h PK profile; full 24-h PK profile): improved

Compound: O=C(O)Cc1ccccc1Nc1c(Cl)cccc1Cl [diclofenac]
- hydrolysis in mouse liver microsomes [3]: hydrolyzed quantitatively
- hydrolysis in mouse plasma [4]: hydrolyzed quantitatively
- hydrolysis in simulated gastric fluid [5]: hydrolyzed quantitatively
